Measurements as given in patent US12552758B2, “Inhibitors of MLH1 and/or PMS2 for cancer treatment” (NeoPhore Limited, priority 2020, dated 2026).

Tests used:
[1] = biological target: recombinant N-terminal PMS2 (residues 1-365) (Homo sapiens (Human), UniProt P54278); assay: Fluorescence polarisation assay for PMS2; format: binding; settings: FP probe displacement; 10 nM N-terminal PMS2, 5 nM probe compound, read after 1 hour
Description: Fluorescence Polarisation Assay for PMS2
(§1) Test compounds, as 10 mM DMSO stocks, were dispensed into a Black Fluotrac 200 384 well medium binding plate (Greiner Bio-One, item number 781076) using a Labcyte Echo acoustic liquid handler. For single point screening, test compounds were added to wells in columns 1-22 whilst DMSO was added to wells in columns 23 and 24 in order to normalise the plate. For potency determination, serial dilutions of test compounds were added to wells in columns 3-22 and DMSO volume was normalised across the plate.
20 μL assay buffer was added to all wells in columns 1 and 24 (column 24 only for single point screening) using a MultiDrop Combi (ThermoFisher). Plates were centrifuged for 1 minute at 250×g and were incubated at room temperature for 30 minutes prior to the addition of 20 μL of 2×([…]) of 5-((5-(4-((2-(2,4-dihydroxy-5-isopropylbenzoyl)isoindolin-5-yl)methyl)piperazin-1-yl)pentyl)carbamoyl)-2-(6-(dimethylamino)-3-(dimethyliminio)-3H-xanthen-9-yl)benzoate (referred to hereinafter as “probe compound”) in assay buffer (prepared from a 100 μM DMSO stock) with a MultiDrop Combi (ThermoFisher). The final concentration of N-terminal PMS2 was 10 nM and the final concentration of probe compound was 5 nM.
(§2) Compound plates were centrifuged for 1 minute at 250×g for 1 minute and were incubated at room temperature for 1 hour before being read on a PheraStar FSX (fitted with 384-well aperture spoon and 540 590 590 FP optic module). The gain and focus were adjusted before each plate was read so that the polarisation of a no enzyme control (column 24) was equal to 35 mP. Data were normalised against the no inhibitor controls (column 23) and no enzyme controls (column 24).

[2] = biological target: recombinant N-terminal MLH1 (residues 15-340) (Homo sapiens (Human), UniProt P40692); assay: Fluorescence polarisation assay for MLH1 (protocol for all Examples except Examples 64, 76, 90 and 95); format: binding; settings: FP probe displacement; 100 nM N-terminal MLH1, 5 nM probe compound, read after 15 minutes; all Examples except 64, 76, 90 and 95
Chain of recombinant N-terminal MLH1 (residues 15-340) (P40692 15-340): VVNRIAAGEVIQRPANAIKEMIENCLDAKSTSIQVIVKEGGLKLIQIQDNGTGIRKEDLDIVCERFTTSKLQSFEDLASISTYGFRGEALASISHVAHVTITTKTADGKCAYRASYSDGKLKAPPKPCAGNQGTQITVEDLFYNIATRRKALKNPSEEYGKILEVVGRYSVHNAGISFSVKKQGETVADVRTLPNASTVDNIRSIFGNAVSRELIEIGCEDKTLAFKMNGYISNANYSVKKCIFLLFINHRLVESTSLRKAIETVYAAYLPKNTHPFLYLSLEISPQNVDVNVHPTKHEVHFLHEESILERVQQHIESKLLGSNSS
Description: Fluorescence Polarisation Assay for MLH1 (Protocol for all Examples Except Examples 64, 76, 90 and 95)
as §1
20 μL assay buffer was added to all wells in columns 1 and 24 (column 24 only for single point screening) using a MultiDrop Combi (ThermoFisher). Plates were centrifuged for 1 minute at 250×g and were incubated at room temperature for 30 minutes prior to the addition of 20 μL of 2×(10 nM) of 5-((5-(4-((2-(2,4-dihydroxy-5-isopropylbenzoyl)isoindolin-5-yl)methyl)piperazin-1-yl)pentyl)carbamoyl)-2-(6-(dimethylamino)-3-(dimethyliminio)-3H-xanthen-9-yl)benzoate (referred to hereinafter as “probe compound”) in assay buffer (prepared from a 100 μM DMSO stock) with a MultiDrop Combi (ThermoFisher). The final concentration of N-terminal MLH1 was 100 nM and the final concentration of probe compound was 5 nM.
as §2, with “15 minutes” for “1 hour”

Chain of recombinant N-terminal PMS2 (residues 1-365) (P54278 1-365): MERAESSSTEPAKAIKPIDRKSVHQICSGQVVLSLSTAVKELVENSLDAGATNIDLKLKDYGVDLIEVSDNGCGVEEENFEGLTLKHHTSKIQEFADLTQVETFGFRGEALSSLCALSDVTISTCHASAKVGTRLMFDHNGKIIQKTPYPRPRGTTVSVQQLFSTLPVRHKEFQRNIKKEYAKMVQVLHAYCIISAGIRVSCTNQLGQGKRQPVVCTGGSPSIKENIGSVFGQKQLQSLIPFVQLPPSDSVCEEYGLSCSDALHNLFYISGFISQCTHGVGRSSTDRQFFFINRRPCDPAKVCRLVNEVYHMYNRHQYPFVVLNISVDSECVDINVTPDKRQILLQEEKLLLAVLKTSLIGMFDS

SMILES	IC50 [1] [µM]	IC50 [2] [µM]
CC(Oc1cc(O)cc(O)c1C(=O)N1CCCC1)c1ccccc1 (single isomer, unassigned) [Example 13]	> 10	> 10
CC(Oc1cc(O)cc(O)c1C(=O)N1CCCC1)c1ccccc1 (single isomer, unassigned) [Example 14]	> 10	> 10
O=C(c1c(O)cc(O)cc1OCc1ncccn1)N1CCCC1 [Example 1, [2,4-dihydroxy-6-(pyrimidin-2-ylmethoxy)phenyl]-pyrrolidin-1-yl-methanone]	> 10	> 10
O=C(c1c(O)cc(O)cc1OC1CCCC1)N1CCCC1 [Example 2, (2-(cyclopentyloxy)-4,6-dihydroxyphenyl)(pyrrolidin-1-yl)methanone]	> 10	> 10
O=C(c1c(O)cc(O)cc1OCc1ccccc1)N1CCCC1 [Example 3, (2-benzyloxy-4,6-dihydroxy-phenyl)-pyrrolidin-1-yl-methanone]	> 10	> 10
O=C(c1c(O)cc(O)cc1OCc1ccccc1)N1Cc2ccccc2C1 [Example 4, (2-benzyloxy-4,6-dihydroxy-phenyl)-isoindolin-2-yl-methanone]	< 1	< 1
O=C(c1c(O)cc(O)cc1OCc1ccccc1)N1CCCCC1 [Example 5, (2-benzyloxy-4,6-dihydroxy-phenyl)-(1-piperidyl)methanone]	> 10	> 10
O=C(c1c(O)cc(O)cc1OCc1ccccc1)N1CC[C@H](O)C1 [Example 6, (2-benzyloxy-4,6-dihydroxy-phenyl)-[(3S)-3-hydroxypyrrolidin-1-yl]methanone]	> 10	> 10
O=C(c1c(O)cc(O)cc1OCc1ccccc1)N1CC[C@@H](O)C1 [Example 7, (2-benzyloxy-4,6-dihydroxy-phenyl)-[(3R)-3-hydroxypyrrolidin-1-yl]methanone]	> 10	> 10
O=C(c1c(O)cc(O)cc1OCc1ccccc1)N1CCC[C@@H](O)C1 [Example 8, (2-benzyloxy-4,6-dihydroxy-phenyl)-[(3R)-3-hydroxy-1-piperidyl]methanone]	–	> 10
O=C(c1c(O)cc(O)cc1OCc1ccccc1)N1CCC[C@H](O)C1 [Example 9, (2-benzyloxy-4,6-dihydroxy-phenyl)-[(3S)-3-hydroxy-1-piperidyl]methanone]	–	> 10
Cc1c(O)cc(O)c(C(=O)N2CCCC2)c1OCc1ccccc1 [Example 10, (2-benzyloxy-4,6-dihydroxy-3-methyl-phenyl)-pyrrolidin-1-yl-methanone]	1 to 10	> 10
CCc1c(O)cc(O)c(C(=O)N2CCCC2)c1OCc1ccccc1 [Example 11, (2-benzyloxy-3-ethyl-4,6-dihydroxy-phenyl)-pyrrolidin-1-yl-methanone]	> 10	> 10
O=C(c1c(O)cc(O)cc1OCc1ccccn1)N1CCCC1 [Example 12, [2,4-dihydroxy-6-(2-pyridylmethoxy)phenyl]-pyrrolidin-1-yl-methanone]	> 10	> 10
O=C(c1c(O)cc(O)cc1OCc1ccc(F)cc1)N1CCCC1 [Example 15, [2-[(4-fluorophenyl)methoxy]-4,6-dihydroxy-phenyl]-pyrrolidin-1-yl-methanone]	> 10	> 10
COc1ccc(COc2cc(O)cc(O)c2C(=O)N2CCCC2)cc1 [Example 16, [2,4-dihydroxy-6-[(4-methoxyphenyl)methoxy]phenyl]-pyrrolidin-1-yl-methanone]	> 10	> 10
Cc1cccc(COc2cc(O)cc(O)c2C(=O)N2CCCC2)c1 [Example 17, [2,4-dihydroxy-6-(m-tolylmethoxy)phenyl]-pyrrolidin-1-yl-methanone]	–	> 10

SMILES	IC50 [1] [µM]	IC50 [2] [µM]
O=C(c1c(O)cc(O)cc1OCc1ccccc1)N1Cc2cccnc2C1 [Example 18, (2-benzyloxy-4,6-dihydroxy-phenyl)-(5,7-dihydropyrrolo[3,4-b]pyridin-6-yl)methanone]	1 to 10	1 to 10
COc1cccc2c1CN(C(=O)c1c(O)cc(O)cc1OCc1ccccc1)C2 [Example 19, (2-benzyloxy-4,6-dihydroxy-phenyl)-(4-methoxyisoindolin-2-yl)methanone]	< 1	< 1
O=C(c1c(O)cc(O)cc1OCc1ccncn1)N1CCCC1 [Example 20, [2,4-dihydroxy-6-(pyrimidin-4-ylmethoxy)phenyl]-pyrrolidin-1-yl-methanone]	> 10	> 10
O=C(c1c(O)cc(O)cc1OCc1cc[nH]n1)N1CCCC1 [Example 21, (2-((1H-pyrazol-3-yl)methoxy)-4,6-dihydroxyphenyl)(pyrrolidin-1-yl)methanone]	> 10	> 10
O=C(c1c(O)cc(O)cc1OCc1c[nH]nn1)N1CCCC1 [Example 22, [2,4-dihydroxy-6-(1H-triazol-4-ylmethoxy)phenyl]-pyrrolidin-1-yl-methanone]	> 10	> 10
O=C(c1c(O)cc(O)cc1OCc1ccccc1)N1Cc2ccc(Br)cc2C1 [Example 23, (2-benzyloxy-4,6-dihydroxy-phenyl)-(5-bromoisoindolin-2-yl)methanone]	< 1	< 1
COC(=O)c1ccc2c(c1)CN(C(=O)c1c(O)cc(O)cc1OCc1ccccc1)C2 [Example 24, methyl 2-(2-benzyloxy-4,6-dihydroxy-benzoyl)isoindoline-5-carboxylate]	< 1	< 1
COc1ccc2c(c1)CN(C(=O)c1c(O)cc(O)cc1OCc1ccccc1)C2 [Example 25, (2-benzyloxy-4,6-dihydroxy-phenyl)-(5-methoxyisoindolin-2-yl)methanone]	< 1	< 1
COc1cc2c(cc1OC)CN(C(=O)c1c(O)cc(O)cc1OCc1ccccc1)C2 [Example 26, (2-benzyloxy-4,6-dihydroxy-phenyl)-(5,6-dimethoxyisoindolin-2-yl)methanone]	< 1	1 to 10
CC(Oc1cc(O)cc(O)c1C(=O)N1Cc2ccccc2C1)c1ccccc1 (stereo not drawn) [Example 27, [2,4-dihydroxy-6-(1-phenylethoxy)phenyl]-isoindolin-2-yl-methanone]	< 1	1 to 10
COc1ccc2c(c1)CN(C(=O)c1c(O)cc(O)cc1OC(C)c1ccccc1)C2 (stereo not drawn) [Example 28, [2,4-dihydroxy-6-(1-phenylethoxy)phenyl]-(5-methoxyisoindolin-2-yl)methanone]	< 1	1 to 10
COc1cc2c(cc1OC)CN(C(=O)c1c(O)cc(O)cc1OC(C)c1ccccc1)C2 (stereo not drawn) [Example 29, [2,4-dihydroxy-6-(1-phenylethoxy)phenyl]-(5,6-dimethoxyisoindolin-2-yl)methanone]	< 1	1 to 10
Cc1cccc(COc2c(C)c(O)cc(O)c2C(=O)N2Cc3cccnc3C2)c1 [Example 31, 5,7-dihydropyrrolo[3,4-b]pyridin-6-yl-[4,6-dihydroxy-3-methyl-2-(m-tolylmethoxy)phenyl]methanone]	< 1	> 10
Cc1c(O)cc(O)c(C(=O)N2CCc3ccccc3C2)c1OCc1ccccn1 [Example 45, 3,4-dihydro-1H-isoquinolin-2-yl-[4,6-dihydroxy-3-methyl-2-(2-pyridylmethoxy)phenyl]methanone]	–	> 10
COc1ccc2c(c1)CN(C(=O)c1c(O)cc(O)c(C)c1OCc1ccccn1)CC2 [Example 46, [4,6-dihydroxy-3-methyl-2-(2-pyridylmethoxy)phenyl]-(7-methoxy-3,4-dihydro-1H-isoquinolin-2-yl)methanone]	–	> 10
Cc1c(O)cc(O)c(C(=O)N2CCOc3ccccc32)c1OCc1ccccc1 [Example 67, (2-(Benzyloxy)-4,6-dihydroxy-3-methylphenyl)(2,3-dihydro-4H-benzo[b][1,4]oxazin-4-yl)methanone]	–	> 10
